Source: ChEMBL document CHEMBL3046228, “Synthesis of new bicyclo[4.1.0]heptane-2,4-dione derivatives and their herbicidal activity” (J Pestic Sci, 2007)

What was measured:
Amaranthus retroflexus = assay: Herbicidal activity against Amaranthus retroflexus assessed as induction of plant damage applied through foliar spraying; format: functional
Zea mays = assay: Phytotoxicity against Zea mays (maize) assessed as induction of plant damage applied through foliar spraying; format: organism-based; conditions: in vivo, other
Abutilon theophrasti = assay: Herbicidal activity against Abutilon theophrasti (velvetleaf) assessed as induction of plant damage applied through foliar spraying; format: functional
Setaria faberi = assay: Herbicidal activity against Setaria faberi (Giant Foxtail) assessed as induction of plant damage applied through foliar spraying; format: functional
Digitaria sanguinalis = assay: Herbicidal activity against Digitaria sanguinalis (hairy crabgrass) assessed as induction of plant damage applied through foliar spraying; format: functional

With `O=C1C[C@H]2C[C@H]2C(=O)C1C(=O)c1ccc(C(F)(F)F)cc1[N+](=O)[O-]` (relative stereo) the ED80 (Amaranthus retroflexus) was 63 gAi/ha, the ED0 (Zea mays) was 31 gAi/ha and the ED80 (Abutilon theophrasti) was 16 gAi/ha. For the same compound, the ED80 (Setaria faberi) was 63 gAi/ha and the ED80 (Digitaria sanguinalis) was 63 gAi/ha.
Work on `O=C1CC2CCCCC2C(=O)C1C(=O)c1ccc(Cl)cc1[N+](=O)[O-]` (stereo not given) yielded an ED80 (Amaranthus retroflexus) of 2000 gAi/ha, an ED0 (Zea mays) of 500 gAi/ha and an ED80 (Abutilon theophrasti) of 500 gAi/ha. It also gave an ED80 (Setaria faberi) of 2000 gAi/ha and an ED80 (Digitaria sanguinalis) of 500 gAi/ha.
In the case of `CCCCC1CC(=O)C(C(=O)c2ccc(Cl)cc2[N+](=O)[O-])C(=O)C1` (stereo not given), the ED80 (Amaranthus retroflexus) is reported as greater than 2000 gAi/ha, the ED0 (Zea mays) is reported as 1000 gAi/ha and the ED80 (Abutilon theophrasti) is reported as 500 gAi/ha. For the same compound, the ED80 (Digitaria sanguinalis) was greater than 2000 gAi/ha.
`CC1CC(=O)C(C(=O)c2ccc(Cl)cc2[N+](=O)[O-])C(=O)C1C` (stereo not given) gave an ED80 (Amaranthus retroflexus) of 500 gAi/ha, an ED0 (Zea mays) of 125 gAi/ha and an ED80 (Abutilon theophrasti) of 125 gAi/ha. The ED80 (Setaria faberi) was 31 gAi/ha and the ED80 (Digitaria sanguinalis) was 31 gAi/ha.
Work on `CS(=O)(=O)c1ccc(C(=O)C2C(=O)C[C@H]3C[C@H]3C2=O)c([N+](=O)[O-])c1` (relative stereo) yielded an ED80 (Amaranthus retroflexus) of 63 gAi/ha, an ED0 (Zea mays) of 250 gAi/ha and an ED80 (Abutilon theophrasti) of 16 gAi/ha. The ED80 (Setaria faberi) was 250 gAi/ha and the ED80 (Digitaria sanguinalis) was 125 gAi/ha.
Work on `CCCC1CC(=O)C(C(=O)c2ccc(Cl)cc2[N+](=O)[O-])C(=O)C1` (stereo not given) yielded an ED80 (Amaranthus retroflexus) of 2000 gAi/ha, an ED0 (Zea mays) of 125 gAi/ha and an ED80 (Abutilon theophrasti) greater than 2000 gAi/ha. It also gave an ED80 (Digitaria sanguinalis) of 500 gAi/ha.
With `O=C1C[C@H]2C[C@H]2C(=O)C1C(=O)c1ccc(Cl)cc1[N+](=O)[O-]` (relative stereo) the ED80 (Amaranthus retroflexus) was 63 gAi/ha, the ED0 (Zea mays) was 16 gAi/ha and the ED80 (Abutilon theophrasti) was 16 gAi/ha. For the same compound, the ED80 (Setaria faberi) was 125 gAi/ha and the ED80 (Digitaria sanguinalis) was 63 gAi/ha.
In the case of `O=C1CC2CCCC2C(=O)C1C(=O)c1ccc(Cl)cc1[N+](=O)[O-]` (stereo not given), the ED80 (Amaranthus retroflexus) is reported as 500 gAi/ha, the ED0 (Zea mays) is reported as 63 gAi/ha and the ED80 (Abutilon theophrasti) is reported as 500 gAi/ha. For the same compound, the ED80 (Setaria faberi) was 500 gAi/ha and the ED80 (Digitaria sanguinalis) was 250 gAi/ha.
For `CC1CCC(=O)C(C(=O)c2ccc(Cl)cc2[N+](=O)[O-])C1=O` (stereo not given), the ED80 (Amaranthus retroflexus) was 250 gAi/ha, the ED0 (Zea mays) was 125 gAi/ha and the ED80 (Abutilon theophrasti) was 63 gAi/ha. For the same compound, the ED80 (Digitaria sanguinalis) was 63 gAi/ha.
`CSCC1CC(=O)C(C(=O)c2ccc(Cl)cc2[N+](=O)[O-])C(=O)C1` (stereo not given) showed an ED80 (Amaranthus retroflexus) of 500 gAi/ha, an ED0 (Zea mays) of 125 gAi/ha and an ED80 (Abutilon theophrasti) of 63 gAi/ha. For the same compound, the ED80 (Setaria faberi) was 125 gAi/ha and the ED80 (Digitaria sanguinalis) was 250 gAi/ha.
For `CS(=O)(=O)c1ccc(C(=O)C2C(=O)C[C@H]3C[C@H]3C2=O)c(Cl)c1` (relative stereo), the ED80 (Amaranthus retroflexus) was 31 gAi/ha, the ED0 (Zea mays) was 125 gAi/ha and the ED80 (Abutilon theophrasti) was 16 gAi/ha. For the same compound, the ED80 (Setaria faberi) was 63 gAi/ha and the ED80 (Digitaria sanguinalis) was 125 gAi/ha.
`COCC1CC(=O)C(C(=O)c2ccc(Cl)cc2[N+](=O)[O-])C(=O)C1` (stereo not given) showed an ED80 (Amaranthus retroflexus) of 125 gAi/ha, an ED0 (Zea mays) of 125 gAi/ha and an ED80 (Abutilon theophrasti) of 125 gAi/ha. It also gave an ED80 (Digitaria sanguinalis) of 500 gAi/ha.
Compound `Cc1cc(S(C)(=O)=O)ccc1C(=O)C1C(=O)C[C@H]2C[C@H]2C1=O` (relative stereo) has an ED80 (Amaranthus retroflexus) of 63 gAi/ha, an ED0 (Zea mays) of 250 gAi/ha and an ED80 (Abutilon theophrasti) of 16 gAi/ha. It also gave an ED80 (Setaria faberi) of 250 gAi/ha and an ED80 (Digitaria sanguinalis) of 250 gAi/ha.
`CSc1ccc(C(=O)C2C(=O)C[C@H]3C[C@H]3C2=O)c([N+](=O)[O-])c1` (relative stereo) was tested, and the ED80 (Amaranthus retroflexus) was 31 gAi/ha, the ED0 (Zea mays) was 125 gAi/ha and the ED80 (Abutilon theophrasti) was 16 gAi/ha. The ED80 (Setaria faberi) was 250 gAi/ha and the ED80 (Digitaria sanguinalis) was 63 gAi/ha.
Compound `O=C1CCCC(=O)C1C(=O)c1ccc(Cl)cc1[N+](=O)[O-]` has an ED80 (Amaranthus retroflexus) of 125 gAi/ha, an ED0 (Zea mays) of 500 gAi/ha and an ED80 (Abutilon theophrasti) of 31 gAi/ha. For the same compound, the ED80 (Setaria faberi) was 500 gAi/ha and the ED80 (Digitaria sanguinalis) was 250 gAi/ha.
In the case of `CC1(C)CC(=O)C(C(=O)c2ccc(Cl)cc2[N+](=O)[O-])C(=O)C1`, the ED80 (Amaranthus retroflexus) is reported as 2000 gAi/ha, the ED0 (Zea mays) is reported as 500 gAi/ha and the ED80 (Abutilon theophrasti) is reported as 125 gAi/ha. It also gave an ED80 (Digitaria sanguinalis) of 250 gAi/ha.
`CC1CC(=O)C(C(=O)c2ccc(Cl)cc2[N+](=O)[O-])C(=O)C1` (stereo not given) gave an ED80 (Amaranthus retroflexus) of 125 gAi/ha, an ED0 (Zea mays) of 63 gAi/ha and an ED80 (Abutilon theophrasti) of 125 gAi/ha. For the same compound, the ED80 (Setaria faberi) was 16 gAi/ha and the ED80 (Digitaria sanguinalis) was 31 gAi/ha.
With `COc1ccc(C(=O)C2C(=O)C[C@H]3C[C@H]3C2=O)c([N+](=O)[O-])c1` (relative stereo) the ED80 (Amaranthus retroflexus) was 500 gAi/ha, the ED0 (Zea mays) was 31 gAi/ha and the ED80 (Abutilon theophrasti) was 125 gAi/ha. The ED80 (Setaria faberi) was 125 gAi/ha and the ED80 (Digitaria sanguinalis) was 125 gAi/ha.
`CS(=O)(=O)c1ccc(C(=O)C2C(=O)CCCC2=O)c(Cl)c1` [SULCOTRIONE] showed an ED80 (Amaranthus retroflexus) of 250 gAi/ha, an ED0 (Zea mays) of 250 gAi/ha and an ED80 (Abutilon theophrasti) of 16 gAi/ha. It also gave an ED80 (Setaria faberi) of 250 gAi/ha and an ED80 (Digitaria sanguinalis) of 125 gAi/ha.
